# Test results as given in patent US9469615B2, “Quinoxalines and AZA-quinoxalines as CRTH2 receptor modulators” (Merck Sharp & Dohme Corp., priority 2010, dated 2016).
# Target: T1, hCRTH2 (Homo sapiens, UniProt Q9Y5Y4)
# T1 construct: expressed in transfected cells; host or cells: HEK (human embryonic kidney) cells expressing hCRTH2; membrane preparation
# T1 sequence (Q9Y5Y4 1-395): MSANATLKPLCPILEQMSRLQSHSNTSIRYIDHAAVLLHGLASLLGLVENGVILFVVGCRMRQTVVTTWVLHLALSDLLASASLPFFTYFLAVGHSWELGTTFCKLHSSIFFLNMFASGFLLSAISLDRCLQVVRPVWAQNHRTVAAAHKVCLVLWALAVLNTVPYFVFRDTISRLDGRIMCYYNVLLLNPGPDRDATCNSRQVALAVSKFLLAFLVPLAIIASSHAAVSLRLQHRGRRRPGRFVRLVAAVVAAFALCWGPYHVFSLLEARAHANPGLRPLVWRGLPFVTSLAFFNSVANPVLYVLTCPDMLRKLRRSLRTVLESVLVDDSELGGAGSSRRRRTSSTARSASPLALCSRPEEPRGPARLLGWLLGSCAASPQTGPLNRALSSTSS
# Experiment: Radioligand binding assay ([3H]PGD2 competition, HEK-hCRTH2 membranes)
# Conditions: [3H]PGD2 binding, rated A-E (Table A)
# Summary of the method: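 Filter-bound radioactivity was counted by scintillation after 60 min incubations at room temperature. Membranes (8-20 μg) from HEK cells expressing hCRTH2 competed test ligands against 3.0 nM [3H]PGD2 in Tris-HCl pH 7.4 buffer with EDTA and 2 mM MnCl2; 10 μM PGD2 set non-specific binding.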
row,Ki [nM],Compound
1,2.1 to 20,"CC(CCc1nc2cc(C(=O)N[C@@H](c3ccccc3)C(F)(F)F)ccc2nc1-c1ccc(Cl)cc1)CC(=O)O (stereo partly drawn) [17M, 3-(4-chlorophenyl)-beta-methyl-7-[[[2,2,2-trifluoro-(1S)-phenylethyl]amino]carbonyl]-2-quinoxaline pentanoic acid]"
2,2.1 to 20,"CC(CCc1nc2cc(C(=O)N[C@H](c3ccccc3)C(F)(F)F)ccc2nc1-c1ccc(Cl)cc1)CC(=O)O (stereo partly drawn) [17N, 3-(4-chlorophenyl)-beta-methyl-7-[[(2,2,2-trifluoro-1(R)-phenylethyl)amino]carbonyl]-2-quinoxalinepentanoic acid]"
3,2.1 to 20,"COc1ccc([C@H](C)NC(=O)c2ccc3nc(-c4ccc(Cl)cc4)c(CCC(C)CC(=O)O)nc3c2)cc1 (stereo partly drawn) [17P, 3-(4-chlorophenyl)-7-[[[1(S)-(4-methoxyphenyl)ethyl]amino]carbonyl]-beta-methyl-2-quinoxaline pentanoic acid]"
4,2.1 to 20,"CC(CCc1nc2cc(C(=O)NCc3cccc(Cl)c3)ccc2nc1-c1ccc(C(F)(F)F)cc1)CC(=O)O (stereo not drawn) [17Q, 7-[[[(3-chlorophenyl)methyl]amino]carbonyl]-beta-methyl-3-[4-(trifluoromethyl)phenyl]-2-quinoxalinepentanoic acid]"
5,0.1 to 2,CC(CCc1nc2cc(C(=O)N3CCC(c4ccccc4)CC3)ccc2nc1-c1ccc(C(F)(F)F)cc1)CC(=O)O (centres unmarked) [17R]
6,2.1 to 20,CC(CCc1nc2cc(C(=O)N[C@@H](c3ccccc3)C(F)(F)F)ccc2nc1-c1ccc(C(F)(F)F)cc1)CC(=O)O (some centres unmarked) [17S]
7,0.1 to 2,"CC(CCc1nc2cc(C(=O)NC3Cc4ccccc4C3)ccc2nc1-c1ccc(C(F)(F)F)cc1)CC(=O)O (stereo not drawn) [17T, 7-[[(2,3-dihydro-1H-inden-2-yl)amino]carbonyl]-beta-methyl-3-[4-(trifluoromethyl)phenyl]-2-quinoxalinepentanoic acid]"
8,2.1 to 20,"CC(CCc1nc2cc(C(=O)N3CC[C@H](c4ccccc4)C3)ccc2nc1-c1ccc(C(F)(F)F)cc1)CC(=O)O (stereo partly drawn) [17U, beta-methyl-7-[(3(R)-phenyl-1-pyrrolidinyl)carbonyl]-3-[4-(trifluoromethyl)phenyl]-2-quinoxalinepentanoic acid]"
9,0.1 to 2,"CC(CCc1nc2cc(C(=O)N3CC[C@@H](c4ccccc4)C3)ccc2nc1-c1ccc(C(F)(F)F)cc1)CC(=O)O (stereo partly drawn) [17V, beta-methyl-7-[(3(S)-phenyl-1-pyrrolidinyl)carbonyl]-3-[4-(trifluoromethyl)phenyl]-2-quinoxalinepentanoic acid]"
10,0.1 to 2,"CC(CCc1nc2cc(C(=O)N3CC(c4ccccc4)C3)ccc2nc1-c1ccc(C(F)(F)F)cc1)CC(=O)O (stereo not drawn) [17W, beta-methyl-7-[(3-phenyl-1-azetidinyl)carbonyl]-3-[4-(trifluoromethyl)phenyl]-2-quinoxalinepentanoic acid]"
11,2.1 to 20,"CC(CCc1nc2cc(C(=O)NCc3ccc(Cl)cc3)ccc2nc1-c1ccc(C(F)(F)F)cc1)CC(=O)O (stereo not drawn) [17X, 7-[[[(4-chlorophenyl)methyl]amino]carbonyl]-beta-methyl-3-[4-(trifluoromethyl)phenyl]-2-quinoxalinepentanoic acid]"
12,2.1 to 20,"CC(CCc1nc2cc(C(=O)NCc3ccc(OC(F)(F)F)cc3)ccc2nc1-c1ccc(C(F)(F)F)cc1)CC(=O)O (stereo not drawn) [17Y, beta-methyl-7-[[[[4-(trifluoromethoxy)phenyl]methyl]amino]carbonyl]-3-[4-(trifluoromethyl)phenyl]-2-quinoxalinepentanoic acid]"
13,2.1 to 20,"CC(CCc1nc2cc(C(=O)NCc3ccc(C#N)cc3)ccc2nc1-c1ccc(C(F)(F)F)cc1)CC(=O)O (stereo not drawn) [17Z, 7-[[[(4-cyanophenyl)methyl]amino]carbonyl]-beta-methyl-3-[4-(trifluoromethyl)phenyl]-2-quinoxalinepentanoic acid]"
14,2.1 to 20,"CC(CCc1nc2cc(C(=O)N3CCC[C@@H](c4ccccc4)C3)ccc2nc1-c1ccc(Cl)cc1)CC(=O)O (stereo partly drawn) [17i, 3-(4-chlorophenyl)-beta-methyl-7-[(3(S)-phenyl-1-piperidinyl)carbonyl]-2-quinoxalinepentanoic acid]"
